Results from patent US12215106B2, “Pharmaceutical compounds and therapeutic methods” (RUTGERS, THE STATE UNIVERSITY OF NEW JERSEY, priority 2018, dated 2025).
Structures can show the parent of a compound that is named as a salt.

How the values were obtained:
in vitro = details: pH 7.4; for % Remaining at 60 min (Buffer) / % Remaining at 60 min (+NADPH) / % Remaining at 60 min (−NADPH) / Percentage turnover in MLM (percent remaining), 60 min: 1 h; for % Remaining at 60 min (Buffer) / CLh, int / Percentage turnover in MLM (percent remaining), 0 min / Percentage turnover in MLM (percent remaining), 5 min / Percentage turnover in MLM (percent remaining), 15 min / Percentage turnover in MLM (percent remaining), 30 min / % Remaining at 60 min (+NADPH) / % Remaining at 60 min (−NADPH) / Percentage turnover in MLM (percent remaining), 60 min / Metabolic stability in liver microsomes, compound remaining: 1 μM; for CLh, int / Percentage turnover in MLM (percent remaining), 0 min / Percentage turnover in MLM (percent remaining), 5 min / Percentage turnover in MLM (percent remaining), 15 min / Percentage turnover in MLM (percent remaining), 30 min / % Remaining at 60 min (+NADPH) / % Remaining at 60 min (−NADPH) / Percentage turnover in MLM (percent remaining), 60 min / Metabolic stability in liver microsomes, compound remaining / half-life at 1 μM: mouse; for Percentage turnover in MLM (percent remaining), 0 min / Percentage turnover in MLM (percent remaining), 5 min / Percentage turnover in MLM (percent remaining), 15 min / Percentage turnover in MLM (percent remaining), 30 min / % Remaining at 60 min (+NADPH) / % Remaining at 60 min (−NADPH) / Percentage turnover in MLM (percent remaining), 60 min / Metabolic stability in liver microsomes, compound remaining / half-life at 1 μM: microsomes; for Percentage turnover in MLM (percent remaining), 0 min: 0 h; for Percentage turnover in MLM (percent remaining), 15 min: 0.25 h; for Percentage turnover in MLM (percent remaining), 30 min: 0.5 h; for Metabolic stability in liver microsomes, compound remaining: 60 min
Description: The objective of the study was to evaluate the metabolic stability of test compounds in liver microsomes from mice (MLM). This was accomplished by incubating test compounds with microsomes and monitoring disappearance with time using LCMS/MS. Imipramine in MLM was run as positive control.
Potassium phosphate buffer (Kphos) was prepared by adding 0.647 g potassium phosphate monobasic (KH2PO4) and 3.527 g potassium phosphate dibasic (K2HPO4) to 400 mL of Milli-Q water. pH of the buffer was adjusted to 7.4 and volume was made up to 500 mL.
Stock solutions of test compounds were prepared in DMSO at a concentration of 1 mM.
From the above mix, 70 μL was added to individual wells of 96 well reaction plates and pre-incubated at 37° C. for 5 min. […] Reactions without NADPH and buffer controls (minus NADPH) at 0 minutes and 60 minutes were also incubated to rule out non-NADPH metabolism or chemical instability in the incubation buffer. All reactions were terminated using 100 μL of ice-cold acetonitrile containing internal standard (glipizide) at 0, 5, 15, 30 and 60 minutes.
Samples were monitored for parent compounds disappearance in MRM mode using LC-MS/MS.
The percent remaining of test compounds and positive control in each sample was determined by considering peak area ratio in the 0 minute sample as 100%.
In vitro intrinsic clearance (CL'int) (units in mL/min/kg) was also calculated.

phospho-RB = assay: Western blotting of phospho-RB levels in GBM spheres; assay type: cell-based, human; details: for phospho-RB (pRB) levels: GBM spheres, 72 hours, Western blotting
Description: Cells were lysed in Cell Lysis Buffer (Cell Signaling, #9803) supplemented with Protease Inhibitor Cocktail (Sigma, #P8340), sonicated briefly while on ice and spun down for 30 minutes at 4° C., after which the supernatant was collected. For each sample, 2 uL of lysate was mixed well into 198 uL de-ionized water. Next, 10 uL of this diluted sample was added to a well in a 96 well plate in quadruplets and mixed with Protein Assay Dye Reagent Concentrate (Bio-Rad, #500-0006) (which was diluted 1:5 with water). BSA standards of 25 ng, 50 ng, 100 ng, 200 ng and 250 ng were also used to the plate and mixed with the reagent. The plate was read in a plate reader at 600 nm and samples were calibrated to the standards to determine the concentration of protein. Using the NuPAGE system (Invitrogen), 25 ug of protein was mixed with NuPAGE LDS 4× Sample Buffer (#NP0007), NuPAGE 10× Reducing Agent (#NP0004) and water, mixed well and heated at 96° C. for 15 minutes to denature the protein. The samples were then loaded into 4-12% Bis-Tris gels (Novex (Invitrogen), #0323) with a protein ladder (Novex (Invitrogen) Sharp Pre-stained protein ladder, #57318) and run at 100-120V for about 2 hours with NuPAGE 20×SDS MES Running Buffer (#NP0002) diluted with water. Next, the gel was taken out and loaded into a NuPAGE transfer cassette with a polyvinylidene membrane with NuPAGE 20× Transfer Buffer (#NP0006-1) diluted with water and methanol. Proteins were transferred for 1 hour at 30V at room temperature. Blocking was performed using the Millipore SNAP i.d. Protein Detection system in 0.25% non-fat dry milk in 0.1% Tween in PBS (PBST). Primary antibodies against BMI1 (Cell Signaling, #6964), mouse monoclonal antiphospho-RB, anti-CDK4, anti-STAT1, anti-PD-L1 (1:1,000) (Millipore), and housekeeping control rabbit polyclonal anti-vinculin (1:1000) (Cell Signaling) were incubated overnight with gentle rocking at 4° C. in the blocking solution. The following day, membranes were washed 3 times with PBST in the SNAP i.d. system before being incubated with secondary antibody in blocking buffer for 1 hour at room temperature. Three washes were then performed in the SNAP i.d. system. Protein signals were detected using ECL Western Blotting Substrate (Pierce, #32106) and filmed.
GBM CSCs are known to be quiescent and therefore resistant to standard chemo/radiotherapy. The retinoblastoma (Rb) tumor suppressor protein regulates cell proliferation by controlling progression through the restriction point within the G1-phase of the cell cycle. Cell cycle-dependent phosphorylation for Ser780 by cyclin D1-CDK4/6 inhibits Rb target binding and allows cell cycle progression.

PD-L1 = assay: Western blotting of PD-L1 levels in GBM spheres; assay type: cell-based, human
[1] = 7-10 nM, time-course of 120 hours

Structure (SMILES) | % Remaining at 60 min (Buffer) (in vitro) | CLh, int (in vitro) | Percentage turnover in MLM (percent remaining), 0 min (in vitro) | Percentage turnover in MLM (percent remaining), 5 min (in vitro) | Percentage turnover in MLM (percent remaining), 15 min (in vitro) | Percentage turnover in MLM (percent remaining), 30 min (in vitro) | % Remaining at 60 min (+NADPH) (in vitro) | % Remaining at 60 min (−NADPH) (in vitro) | Percentage turnover in MLM (percent remaining), 60 min (in vitro) | Metabolic stability in liver microsomes, compound remaining (in vitro) | half-life at 1 μM (in vitro) | phospho-RB (pRB) levels (phospho-RB) | PDL1 levels (PD-L1; GBM spheres, Western blotting) | phospho-RB levels, time-course (phospho-RB; [1]) | PD-L1 levels, time-course (PD-L1; [1])
Cc1nc2ccccn2c1-c1csc(Nc2ccc3c(c2)OC(F)(F)O3)n1 [Compound 16, N-(2,2-difluorobenzo[d][1,3]dioxol-5-yl)-4-(2-methylimidazo[1,2-a]pyridin-3-yl)thiazol-2-amine hydrochloride] | 87% | 759 mL/min/kg | 100% | 83% | 58% | 35% | 6% | 62% | 6% | < 50% | 15 min | – | – | – | –
[2H]C1([2H])Oc2ccc(Nc3nc(-c4c(C)nc5ccccn45)cs3)cc2O1 [Compound 17, N-(benzo[d][1,3]dioxol-5-yl-2,2-d2)-4-(2-methylimidazo[1,2-c]pyridin-3-yl)thiazol-2-amine hydrochloride] | 101% | 953 mL/min/kg | 100% | 91% | 56% | 20% | 3% | 81% | 3% | < 50% | 12 min | lowered pRB | increased PDL1 | – | –
COc1c(F)cc(Nc2nc(-c3c(C)nc4ccccn34)cs2)cc1F [Compound 14, hydrochloride] | 66% | 550 mL/min/kg | 100% | 88% | 62% | 36% | 13% | 33% | 13% | < 50% | 20 min | lowered pRB | – | downregulation of phospho-RB levels | modulate of the levels of PD-L1
[2H]C([2H])([2H])Oc1ccc(Nc2nc(-c3c(C)nc4ccccn34)cs2)cc1 [Compound 15, N-(4-(methoxy-d3)phenyl)-4-(2-methylimidazo[1,2-c]pyridin-3-yl)thiazol-2-amine hydrochloride] | 85% | 215 mL/min/kg | 100% | 100% | 98% | 67% | 48% | 93% | 48% | < 50% | 52 min | lowered pRB | – | – | –
